Experimental data: patent US12262990B2, “Methods and materials for prolonged sweat stimulation” (priority 2016, dated 2025)

Assays:
[1] = molecular target: acetylcholinesterase (AChE) (Homo sapiens, UniProt P22303); conditions: in words; cited from earlier work
[2] = tested on: skin of Persons A and B; assay: Example 1: iontophoretic sweat stimulation on two persons, followed by skin impedance; type: in vivo, human; conditions: for duration of sweat stimulation from a single dose: about 40 mC/cm^2, estimated 0.142 mg, skin impedance
Procedure: (§1) Sweat was stimulated on two persons (A and B) using for each person a current of 0.5 mA and a charge of 75 mC applied over a total stimulated area of 1.9 cm^2 for a time of 150 seconds. Thus, the total charge density was 75 mC/1.9 cm^2 or about 40 mC/cm^2, and the estimated dose of carbachol delivered to the skin was 0.142 mg. The charge density and stimulant dose estimates may vary based on other ionic impurities that are also dosed (e.g., sodium dosed could decrease the amount of carbachol dosed). The effect of the dosed ionic impurities can be estimated or quantified in any given case by analytical chemistry techniques. […] The stimulated area was divided among two circular test sites that were approximately 1 inch apart. Skin impedance was measured using a Gamry Potentiostat using 2 kHz and 1 V peak to peak sinewave. The electrical resistance results are plotted in FIGS. 2A-2D and 3A-3D for Persons A and B, respectively (the data has been separated into four charts for each person for the sake of clarity). The baseline plots were measured at a control site (i.e., non-stimulated skin) positioned within 1 inch of the stimulation site.

[3] = tested on: skin of Persons A and B; assay: Example 1: sweat rates by visual and gravimetric (filter paper) testing; type: in vivo, human; conditions: for Sweat Generation Rate: single dose about 40 mC/cm^2
Procedure: as §1
Sweat rates in nL/min/gland were also quantified using visual testing and gravimetric testing. Results from Person B are shown in FIG. 4 for a skin site of about 1 cm^2 of skin at 25 hours after stimulation. Approximately 130 active glands were counted per cm^2. Filter papers were weighed, placed on stimulated and control sites for 10 minutes under a plastic wrap to prevent evaporation, and immediately weighed again, and then sweat generation rates were calculated. […] The data for the stimulated sites 1 and 2 (paper measurements taken from each of the two stimulation areas) is shown in Table 2.

[4] = tested on: skin of 8 subjects; assay: Example 2: iontophoretic sweat stimulation on 8 subjects, gravimetric sweat rate; type: in vivo, human
Text: On 8 subjects, sweat was stimulated utilizing carbachol four times as detailed in Table 4 and one additional time utilizing pilocarpine. The stimulated area was divided among two circular test sites with areas of 0.88 cm^2 that were approximately 1 inch apart, which provides a total stimulation area of 1.76 cm^2. The carbachol doses in Table 4 are shown as percentages of the applied charge density compared to the charge density of pilocarpine applied by the commercial Wescor Nanoduct product, which is a charge density of 42 mC/cm^2. The pilocarpine was dosed over 150 seconds using a current of 0.28 mA/cm^2 and a charge density of 42 mC/cm^2, which delivered approximately 90.65 μg/cm^2.
Sweat rate was determined by a gravimetric test. Filter papers were weighed, placed on stimulated and control sites for 10 minutes under a specially designed acrylic holder that prevented any wicking of sweat from neighboring areas and prevented evaporation. The papers were immediately weighed again, and then sweat generation rates were calculated. The results from the gravimetric testing are plotted in FIGS. 4-6. Additionally, three subjects received three consecutive doses of 12.5% carbachol once the sweat rate had fallen below 1 nL/min/gland. The results from the repeated stimulation testing of subjects 1-3 are plotted in FIGS. 7A-7C, respectively.

[5] = tested on: Muscarinic receptor; conditions: class symbols, key not given; cited from earlier work
[6] = tested on: Nicotinic receptor; conditions: class symbols, key not given; cited from earlier work
[7] = tested on: skin; conditions: cited from earlier work

acetylcholinesterase (AChE), sequence (P22303 32-614, species assumed): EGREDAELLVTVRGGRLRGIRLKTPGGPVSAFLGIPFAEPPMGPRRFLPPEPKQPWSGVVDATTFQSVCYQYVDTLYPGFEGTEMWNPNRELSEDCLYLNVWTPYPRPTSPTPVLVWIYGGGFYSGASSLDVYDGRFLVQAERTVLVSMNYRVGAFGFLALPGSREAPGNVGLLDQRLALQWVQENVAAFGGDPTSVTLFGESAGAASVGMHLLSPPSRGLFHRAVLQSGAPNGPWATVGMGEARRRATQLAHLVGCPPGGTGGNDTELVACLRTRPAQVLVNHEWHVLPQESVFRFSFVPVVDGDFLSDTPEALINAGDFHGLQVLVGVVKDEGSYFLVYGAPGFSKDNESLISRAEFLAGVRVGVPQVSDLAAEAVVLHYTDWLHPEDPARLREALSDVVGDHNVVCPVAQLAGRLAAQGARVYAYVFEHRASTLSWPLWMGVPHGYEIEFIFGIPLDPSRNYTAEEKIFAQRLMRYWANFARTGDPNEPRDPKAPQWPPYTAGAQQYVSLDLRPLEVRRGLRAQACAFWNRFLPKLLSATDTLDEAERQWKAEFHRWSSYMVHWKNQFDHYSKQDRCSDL

Compound: CC(=O)OCC[N+](C)(C)C [Acetylcholine]
- metabolism by acetylcholinesterase (AChE) [1]: rapidly metabolized

Compound: C[N+](C)(C)CCOC(N)=O [Carbachol]
- duration of sweat stimulation from a single dose ([2]; Person A): at least 31 hours
- duration of sweat stimulation from a single dose ([2]; both Persons A and B): at least 24 hours
- duration of sweat generation ([2]; lower charge densities than about 40 mC/cm^2): 24 h
- sweat rate ([3]; 40 mC/cm^2 charge density, for 24 hours): greater than 1 nL/min/gland
- active glands counted ([3]; Person B, skin site of about 1 cm^2, 25 hours after stimulation): Approximately 130 per cm^2
- Sweat Generation Rate ([3]; Subject A, Site 1, 4 hours after stimulation): 6.4 nl/min/gland
- Sweat Generation Rate ([3]; Subject A, Site 1, 23 hours after stimulation): 3.3 nl/min/gland
- Sweat Generation Rate ([3]; Subject A, Site 2, 4 hours after stimulation): 4.6 nl/min/gland
- Sweat Generation Rate ([3]; Subject A, Site 2, 23 hours after stimulation): 3.1 nl/min/gland
- Sweat Generation Rate ([3]; Subject B, Site 1, 5 hours after stimulation): 8.3 nl/min/gland
- Sweat Generation Rate ([3]; Subject B, Site 1, 23 hours after stimulation): 0.3 nl/min/gland
- Sweat Generation Rate ([3]; Subject B, Site 2, 5 hours after stimulation): 9.4 nl/min/gland
- Sweat Generation Rate ([3]; Subject B, Site 2, 23 hours after stimulation): 2.7 nl/min/gland
- stimulated sweat amount ([3]; charge density of less than 40 mC/cm^2): greater than 1,400 nL/gland/dose
- average sweat rates observed ([3]; for 24 hours, half the dose): greater than 2 nL/min/gland
- duration of stimulated sweating response of greater than 0.1 nL/min/gland ([4]; 5 out of 8 subjects, single 12.5% dose (5.25 mC/cm^2)): greater than 8 hours
- sustained sweating following a single iontophoretic dose, compared with pilocarpine ([4]; 8 subjects, in words): much longer than commonly observed for pilocarpine
- duration of sweating responses ([4]; four of the 8 subjects): greater than 24 hours
- duration of sweating at greater than 1 nL/min/gland ([4]; half of the subjects, single 100% dose (42 mC/cm^2)): greater than 24 hours
- duration of sweating at greater than 1 nL/min/gland ([4]; subjects e, g, h, 100% dosage (42 mC/cm^2)): greater than 7 hours
- duration of sweating responses ([4]; three of the 8 subjects): greater than 48 hours
- Receptor Activity Muscarinic [5]: strong
- Receptor Activity Nicotinic [6]: strong
- metabolism by acetylcholinesterase (AChE) [1]: metabolized much more slowly

Compound: CC(=O)OC(C)C[N+](C)(C)C (stereo not shown) [Methacholine]
- metabolism by acetylcholinesterase (AChE) [1]: metabolized much more slowly

Compound: CC[C@@H]1C(=O)OC[C@@H]1Cc1cncn1C [Pilocarpine]
- average sweat rate ([7]; charge density of 40 mC/cm^2, for 90 minutes): 1-4 nL/min/gland
- duration of sweat response ([7]; charge density of 40 mC/cm^2, on average): 90 min
